This is an account of results in patent US20050069522A1, “Combination pharmaceutical agents as inhibitors of HCV replication” (priority 2002, published 2005).

The subject of data set [1] is HCV replicon (HCV 1b-377-neo replicon cells). Nature of the data set: HCV replicon cell line FRET assay. Conditions: Hepatitis C virus. Type of data set: cell-based.
For data set [2] the following is noted: human.
A short description of data set [3]: Alamar blue cytotoxicity (CC50), wild-type replicon cells. Type of data set: cell-based. Conditions: human, Huh-7 cells carrying the wild-type HCV 377-neo replicon; Wild-type replicon cell line. In general terms: The colour change of resazurin is a common sign of viable cells or microbes.
Data set [4] relates to wild-type Blast/Luciferase HCV replicon. Type of data set: cell-based. Conditions: 0.5 μM Compound 124.
[5] abbreviates: read-out: Replicon Inhibition Range EC50.
The mark [6] stands for this setting: Wild-type replicon cell line, FRET assay, read-out: EC50.
[7] abbreviates: HCV replicon cell line, FRET assay, read-out: Replicon Inhibition Range EC50.

pEC50: −log10 of the molar value. Like-named read-outs stand apart in the source and are kept apart here.

Take `C[C@H](NC(=O)Cc1ccccc1)C(=O)Nc1ccc(C2S/C(=N\c3cccc(F)c3)N(Cc3ccco3)C2=O)cc1` (stereo partly drawn) [Compound 124, (N-{4-[2-(3-fluorophenylimino)-3-furan-2-ylmethyl-4-oxo-thiazolidin-5-yl]phenyl}-2S-(phenylacetylamino))propionamide]: the negative logarithm of the EC50 (pEC50) (as a rule, the negative decadic logarithm of the EC50, by convention in mol/L) was more than 7.00 in data set [1] (setting [5]) and 6.99 in data set [1] (setting [6]). In addition, the CC50 at 72 h in data set [2] and in data set [3] was more than 5000 nM in each case. In addition, in data set [4], the “replication of the replicon in the presence of compound” value is on record as “completely inhibited”.

For the compound `C[C@H](NC(=O)OCc1ccccc1)C(=O)Nc1ccc(C2S/C(=N\c3cccc(F)c3)N(Cc3ccco3)C2=O)cc1` (stereo partly drawn) [Compound 1, (1S-(4-[2-(3-Fluorophenylimino)-3-furan-2-ylmethyl-4-oxo-thiazolidin-5-yl]-phenylcarbamoyl)ethyl)carbamic acid benzyl ester], the pEC50 in data set [1] (setting [5]) is 6.00 to 7.00; in data set [1] (setting [6]), 5.82. Also, the CC50 at 72 h in data set [2] and in data set [3] was more than 5000 nM throughout.

Turning to `O=C(Nc1ccc(C2S/C(=N\c3cccc4ccncc34)N(Cc3ccco3)C2=O)cc1)[C@@H]1CCCN1C(=O)OCc1ccccc1` (stereo partly shown) [Compound 11], the negative-log EC50 (pEC50) in data set [1] (setting [7]) was more than 7.00.

With `O=C(Nc1ccc(C2S/C(=N\c3cccc(F)c3)N(CCc3cccs3)C2=O)cc1)[C@@H]1CCCN1C(=O)OCc1ccccc1` (stereo partly shown) [Compound 20], the pEC50 in data set [1] (setting [7]) was 5.30 to 6.00.

On to `O=C(Nc1ccc(C2S/C(=N\c3ccc(N4CCOCC4)cc3)N(Cc3ccccn3)C2=O)cc1)[C@@H]1CCCN1C(=O)NCc1ccccc1` (stereo partly shown) [Compound 135], for which the negative logarithm of the EC50 (pEC50) in data set [1] (setting [7]) is more than 7.00.

Take `C[C@H](NC(=O)OCc1ccccc1)C(=O)Nc1ccc(C2S/C(=N\c3ccc4c(c3)CCC4)N(Cc3ccco3)C2=O)cc1` (stereo partly shown) [Compound 39]: in data set [1] (setting [7]), the pEC50 is 5.30 to 6.00.

Take `C[C@@H](C(=O)Nc1ccc(C2S/C(=N\c3ccc(N4CCOCC4)cc3)N(Cc3ccccn3)C2=O)cc1)N(C)C(=O)OCc1ccccc1` (stereo partly shown) [Compound 74]: in data set [1] (setting [7]), the pEC50 is 6.00 to 7.00.

`O=C(Nc1ccc(C2SC3=Nc4ccccc4CN3C2=O)cc1)[C@H]1CCCN1C(=O)OCc1ccccc1` (stereo partly shown) [Compound 139]: in data set [1] (setting [7]), the negative logarithm of the EC50 (pEC50) is 6.00 to 7.00.

In the case of `C/N=C1\SC(c2ccc(NC(=O)[C@H](C)NC(=O)C(c3ccccc3)c3ccccc3)cc2)C(=O)N1Cc1ccccn1` (stereo partly shown) [Compound 111], the negative-log EC50 (pEC50) in data set [1] (setting [7]) is more than 7.00.

In the case of `C[C@H](NC(=O)Cc1ccccc1)C(=O)Nc1ccc(C2SC3=Nc4ccccc4CN3C2=O)cc1` (stereo partly shown) [Compound 137], the negative-log EC50 (pEC50) in data set [1] (setting [7]) was 6.00 to 7.00.

In the case of `O=C(Nc1ccc(C2S/C(=N\c3ccc(N4CCOCC4)cc3)N(Cc3ccncc3)C2=O)cc1)[C@@H]1CCCN1C(=O)OCc1ccccc1` (stereo partly shown) [Compound 83], the pEC50 in data set [1] (setting [7]) was more than 7.00.

Take `O=C(Nc1ccc(C2S/C(=N\c3ccc(F)cc3Cl)N(Cc3ccco3)C2=O)cc1)[C@@H]1CCCN1C(=O)OCc1ccccc1` (stereo partly shown) [Compound 59]: the pEC50 in data set [1] (setting [7]) is 5.30 to 6.00.

With `C[C@H](NC(=O)OCc1ccccc1)C(=O)Nc1ccc(C2S/C(=N\c3ccc4c(c3)OCCO4)N(Cc3ccco3)C2=O)cc1` (stereo partly shown) [Compound 64], the negative-log EC50 (pEC50) in data set [1] (setting [7]) was more than 7.00.

On to `C[C@H](NC(=O)OCc1ccccc1)C(=O)Nc1ccc(C2S/C(=N\Cc3ccccn3)N(C)C2=O)cc1` (stereo partly shown) [Compound 86], for which the pEC50 in data set [1] (setting [7]) is 5.30 to 6.00.

For `C/N=C1\SC(c2ccc(NC(=O)[C@@H]3CCCN3C(=O)Cc3ccccc3)cc2)C(=O)N1Cc1ccccn1` (stereo partly shown) [Compound 101], the pEC50 in data set [1] (setting [7]) is more than 7.00.

With `O=C(Nc1cccc(C2S/C(=N\c3cccc(F)c3)N(Cc3ccco3)C2=O)c1)[C@@H]1CCCN1C(=O)OCc1ccccc1` (stereo partly shown) [Compound 33], the pEC50 in data set [1] (setting [7]) is 5.30 to 6.00.

As to `Cc1cnc(CN2C(=O)C(c3ccc(NC(=O)[C@@H]4CCC(=O)N4C(=O)OCc4ccccc4)cc3)S/C2=N\c2ccc(N3CCOCC3)cc2)cn1` (stereo partly shown) [Compound 71], in data set [1] (setting [7]), the pEC50 is more than 7.00.

With `O=C(Nc1ccc(C2S/C(=N\c3cccc(F)c3)N(Cc3ccc(OC(F)(F)F)cc3)C2=O)cc1)[C@@H]1CCCN1C(=O)OCc1ccccc1` (stereo partly shown) [Compound 19], the pEC50 in data set [1] (setting [7]) is 5.30 to 6.00.

Turning to `C[C@H](NC(=O)OCc1ccccc1)C(=O)Nc1ccc(C2S/C(=N\c3ccc(N4CCOCC4)cc3)N(Cc3ccccn3)C2=O)cc1` (stereo partly shown) [Compound 72], the pEC50 in data set [1] (setting [7]) is more than 7.00.

Take `O=C(Nc1ccc(C2S/C(=N\c3ccc(N4CCOCC4)cc3)N(Cc3ccccn3)C2=O)cc1)[C@@H]1CCCN1C(=O)OCc1ccccc1` (stereo partly shown) [Compound 73]: in data set [1] (setting [7]), the pEC50 is more than 7.00.

Take `CN=C1SC(c2ccc(NC(=O)[C@@H]3CCCN3C(=O)OCc3ccccc3)cc2)C(=O)N1Cc1ccccn1` (stereo partly shown) [Compound 85]: the negative-log EC50 (pEC50) in data set [1] (setting [7]) is more than 7.00.

With `C[C@H](NC(=O)OCc1ccccc1)C(=O)Nc1ccc(C2S/C(=N\c3ccc(N4CCOCC4)cc3)N(Cc3ccncc3)C2=O)cc1` (stereo partly shown) [Compound 82], in data set [1] (setting [7]), the pEC50 is more than 7.00.

As for `COc1ccc(/N=C2\SC(c3ccc(NC(=O)[C@H](C)NC(=O)OCc4ccccc4)cc3)C(=O)N2Cc2ccco2)cc1F` (stereo partly shown) [Compound 66], in data set [1] (setting [7]), the pEC50 was 6.00 to 7.00.

For the compound `CC(C)/N=C1\SC(c2ccc(NC(=O)[C@H](C)NC(=O)[C@@H](C)c3ccccc3)cc2)C(=O)N1Cc1ccccn1` (stereo partly shown) [Compound 121], the pEC50 in data set [1] (setting [7]) is 6.00 to 7.00.

As to `O=C(Nc1ccc(C2S/C(=N\c3cccnc3)N(Cc3cccc(F)c3)C2=O)cc1)[C@@H]1CCCN1C(=O)OCc1ccccc1` (stereo partly shown) [Compound 77], in data set [1] (setting [7]), the pEC50 was more than 7.00.

For `O=C(Nc1ccc(C2S/C(=N\c3ccc(N4CCOCC4)cc3)N(Cc3ccccn3)C2=O)cc1)[C@@H]1CCCN1C(=O)C(F)c1ccccc1` (stereo partly shown) [Compound 110], the negative-log EC50 (pEC50) in data set [1] (setting [7]) was more than 7.00.

Regarding `O=C(Nc1ccc(C2S/C(=N\c3ccc(N4CCOCC4)cc3)N(Cc3ccccn3)C2=O)cc1)[C@@H]1CCCN1C(=S)NCc1ccccc1` (stereo partly shown) [Compound 136], the pEC50 in data set [1] (setting [7]) is more than 7.00.

As for `C[C@H](NC(=O)OCc1ccccc1)C(=O)Nc1ccc(C2S/C(=N\c3cccnc3)N(Cc3cccc(F)c3)C2=O)cc1` (stereo partly shown) [Compound 76], the pEC50 in data set [1] (setting [7]) was more than 7.00.

Take `O=C(Nc1ccc(C2S/C(=N\c3cccc(F)c3)N(CCOc3ccccc3)C2=O)cc1)[C@@H]1CCCN1C(=O)OCc1ccccc1` (stereo partly shown) [Compound 17]: in data set [1] (setting [7]), the negative-log EC50 (pEC50) is 5.30 to 6.00.

As for `CN(C)c1ccc(CC(=O)N2CCC[C@H]2C(=O)Nc2ccc(C3S/C(=N\c4ccc(N5CCOCC5)cc4)N(Cc4ccccn4)C3=O)cc2)cc1` (stereo partly shown) [Compound 103], the pEC50 in data set [1] (setting [7]) was 6.00 to 7.00.
